Molecules are shown by their SMILES. pIC50: −log10 of the molar value.

Holding throughout (type): functional, cell-based
One test deals with MCF7. In words: Cytostatic activity against human MCF7 cells after 48 hrs by MTT assay. Conditions: MCF7, 48 h. In general terms: Tetrazolium dyes change colour on reduction, which living cells bring about.
In a further test the test system is HL-60. In words: Cytostatic activity against human HL60 cells after 48 hrs by MTT assay. To be noted: HL-60, 48 h.
The subject of a further test is A549. In words: Cytostatic activity against human A549 cells after 48 hrs by MTT assay. Conditions: A549, 48 h.
A further test deals with HeLa. Briefly: Cytostatic activity against human HeLa cells after 48 hrs by MTT assay.

The pIC50 is the negative decadic logarithm of the IC50, by convention in mol/L. A high value points to a low IC50. For `Nc1nc(Cl)nc2c1ncn2[C@@H]1O[C@H](CO)[C@@H](O)[C@@H]1F` [CLOFARABINE], the pIC50 in the test on MCF7 was 4.30; in the test on HL-60 it was 7.00; in the test on A549, 5.10; with HeLa it was 4.30.

Take `CCCCCCCCCCCCCC(=O)OCC(COC(=O)CCCCCCCCCCCCC)OP(=O)(O)OC[C@H]1O[C@@H](n2cnc3c(N)nc(Cl)nc32)[C@@H](F)[C@@H]1O`: the pIC50 in the test with MCF7 was 4.40; with HL-60, below 4.00; in the test with A549, below 4.00; in the test with HeLa, below 4.00.

As for `CCCCCCCCCCCCCCCC(=O)OCC(COC(=O)CCCCCCCCCCCCCCC)OP(=O)(O)OC[C@H]1O[C@@H](n2cnc3c(N)nc(Cl)nc32)[C@@H](F)[C@@H]1O`, the pIC50 with MCF7 was 4.52; in the test on HL-60 it was 4.26; in the test with A549 it was 4.05; in the test on HeLa, 4.00.

For `CCCCCCCCCCCCCCCC(=O)OC[C@@H](COP(=O)(O)OC[C@H]1O[C@@H](n2cnc3c(N)nc(Cl)nc32)[C@@H](F)[C@@H]1O)OC(=O)CCCCCCCCCCCCCCC`, the negative logarithm of the IC50 (pIC50) with MCF7 is below 4.00; in the test with HL-60, 5.00; with A549, below 4.00; in the test with HeLa, below 4.00.

Turning to `CCCCCCCCCCCCCC(=O)OC[C@@H](COP(=O)(O)OC[C@H]1O[C@@H](n2cnc3c(N)nc(Cl)nc32)[C@@H](F)[C@@H]1O)OC(=O)CCCCCCCCCCCCC`, the pIC50 was 4.40 with MCF7, 6.10 with HL-60, below 4.00 in the test on A549 and 4.30 in the test with HeLa.
